Results from US10519099B2, “Cystobactamides” (priority 2014, dated 2019).
In brackets after ≈: the same amount, converted by molar mass. Positions of bridges follow the written chain, without caps; N, C: chain ends. Non-standard residues stand in square brackets, D forms with d. Residues, ends and D or L forms follow the SMILES beside them. *: point of attachment. Ileψ(thiazoline)Cys = CC[C@H](C)[C@H](N)C1=N[C@H](C(=O)*)CS1; dOrn = NCCC[C@@H](N)C(=O)O

Experiments:
[1] = tested on: E. coli DSM-1116; test: MIC microdilution, E. coli DSM-1116; type: cell-based, Escherichia coli; settings: Escherichia coli, DSM1116; Gram-negative set; read-out: MIC E. coli DSM-1116
Method: (§1) Indicator strains used in susceptibility assays were either part of our strain collection or purchased from the German Collection of Microorgansims and Cell Cultures (DSMZ) or from the American Type Culture Collection (ATCC). E. coli strain WT and corresponding E. coli mutants were kindly provided by Prof. Dr. P. Heisig, Pharmaceutical Biology and Microbiology, University of Hamburg. E. coli strains JW0401-1 (WT) and Δtsx were obtained from the CGSC collection.
(§2) MIC values were determined in standardized microdilution assays. Overnight cultures were diluted in the appropriate growth medium to achieve an inoculum of 10^4-10^6 cfu/mL. Yeasts were grown in Myc medium (1% phytone peptone, 1% glucose, 50 mM HEPES, pH 7.0), S. pneumonia and Enterococcus spp. in tryptic soy broth (TSB: 1.7% peptone casein, 0.3% peptone soymeal, 0.25% glucose, 0.5% NaCl, 0.25% K2HPO4; pH 7.3); M. smegmatis in Middlebrook 7H9 medium supplemented with 10% Middlebrook ADC enrichment and 2 ml/I glycerol). All other listed bacteria were grown in Müller-Hinton broth (0.2% beef infusion solids, 1.75% casein hydrolysate, 0.15% starch, pH 7.4). Cystobactamides and reference drugs were added directly to the cultures in sterile 96-well plates as duplicates and serial dilutions were prepared. Microorganisms were grown on a microplate shaker (750 rpm, 30-37° C., 18-48 h), except S. pneumonia, which was grown at non-shaking conditions (37° C., 5% CO2, 18 h). Growth inhibition was assessed by visual inspection and the MIC was defined as the lowest concentration of compound that inhibited visible growth.

[2] = tested on: E. coli DSM-26863 (tolC3); test: MIC microdilution, E. coli DSM-26863 (tolC3); type: cell-based, Escherichia coli; settings: Escherichia coli, DSM26863, read-out: MIC E. coli DSM-26863 (tolC3)
Method: as §1, §2

[3] = tested on: E. coli WT; test: MIC microdilution, E. coli WT; type: cell-based, Escherichia coli; settings: Escherichia coli; Gram-negative set; read-out: MIC E. coli WT
Method: as §1, §2

[4] = tested on: Acinetobacter baumannii DSM-30008; test: MIC microdilution, A. baumannii DSM-30008; type: cell-based; settings: Acinetobacter baumannii, DSM30008; Gram-negative set; read-out: MIC A. baumannii DSM-30008
Method: as §1, §2

[5] = tested on: E. coli WT-3 [gyrA(S83L, D87G)]; test: MIC microdilution, E. coli WT-3 [gyrA(S83L, D87G)]; type: cell-based, Escherichia coli; settings: Escherichia coli, read-out: MIC E. coli WT-3 [gyrA(S83L, D87G)]
Method: as §1, §2

[6] = tested on: P. aeruginosa DSM-24600 (ESBL); test: MIC microdilution, P. aeruginosa DSM-24600 (ESBL); type: cell-based, Pseudomonas aeruginosa; settings: Pseudomonas aeruginosa, DSM24600; Gram-negative set; read-out: MIC P. aeruginosa DSM-24600 (ESBL)
Method: as §1, §2

[7] = tested on: Proteus vulgaris DSM-2140; test: MIC microdilution, P. vulgaris DSM-2140; type: cell-based; settings: Proteus vulgaris, DSM2140; Gram-negative set; read-out: MIC P. vulgaris DSM-2140
Method: as §1, §2

[8] = tested on: Citrobacter freundii DSM-30039; test: MIC microdilution, C. freundii DSM-30039; type: cell-based; settings: Citrobacter freundii, DSM30039; Gram-negative set; read-out: MIC C. freundii DSM-30039
Method: as §1, §2

[9] = tested on: E. coli WT-III [marRΔ74bp]; test: MIC microdilution, E. coli WT-III [marRΔ74bp]; type: cell-based, Escherichia coli; settings: Gram-negative set
Method: as §1, §2

[10] = tested on: Cystobacter velatus MCy8071; test: Antibiotic resistance of producer strain MCy8071; type: cell-based; settings: final concentration 50 μg ml^−1
Method: MCy8071 is resistant against the following antibiotics: ampicillin, gentamycin, hygromycin, polymycin, bacitracin, spectinomycin, neomycin, and fusidinic acid. Weak growth is possible with cephalosporin and kasugamycin and no growth is possible with thiostrepton, trimethoprin, kanamycin, and oxytetracycline (final concentration of all antibiotics was adjusted to 50 μg ml^−1).

## CCOc1cc(C(=O)O)ccc1NC(=O)c1ccc(NC(=O)c2ccc(NC(=O)C(NC(=O)c3ccc(NC(=O)c4ccc([N+](=O)[O-])cc4)cc3)C(OC)C(N)=O)cc2)c(OC(C)C)c1O (stereo not shown) [Cys 905-2]
[1]
  MIC: 8 µg/mL (≈ 8.83 µM)
[2]
  MIC: 2 µg/mL (≈ 2.21 µM)
[3]
  MIC: 4 µg/mL (≈ 4.42 µM)
[4]
  MIC: 64 µg/mL (≈ 70.7 µM)
[5]
  MIC: > 64 µg/mL
[6]
  MIC: > 64 µg/mL
[7]
  MIC: 32 µg/mL (≈ 35.3 µM)
[8]
  MIC: 8 µg/mL (≈ 8.83 µM)
[9]
  MIC E. coli WT-III [marRΔ74bp]: >64 µg/mL

## COC(C(=O)O)C(NC(=O)c1ccc(NC(=O)c2ccc([N+](=O)[O-])cc2)cc1)C(=O)Nc1ccc(C(=O)Nc2ccc(C(=O)Nc3ccc(C(=O)O)cc3OC(C)C)c(O)c2OC(C)C)cc1 (stereo not shown) [Cys 920-1]
[1]
  MIC: > 64 µg/mL
[2]
  MIC: 64 µg/mL (≈ 69.5 µM)
[3]
  MIC: > 64 µg/mL
[4]
  MIC: > 64 µg/mL
[5]
  MIC: > 64 µg/mL
[6]
  MIC: > 64 µg/mL
[7]
  MIC: > 64 µg/mL
[8]
  MIC: > 64 µg/mL
[9]
  MIC E. coli WT-III [marRΔ74bp]: >64 µg/mL

## CCC(C)Oc1cc(C(=O)O)ccc1NC(=O)c1ccc(NC(=O)c2ccc(NC(=O)C(OC)C(NC(=O)c3ccc(NC(=O)c4ccc([N+](=O)[O-])cc4)cc3)C(=O)O)cc2)c(OC(C)C)c1O (stereo not shown) [Cys 934-2]
[1]
  MIC: > 64 µg/mL
[2]
  MIC: 32 µg/mL (≈ 34.2 µM)
[3]
  MIC: > 64 µg/mL
[4]
  MIC: > 64 µg/mL
[5]
  MIC: > 64 µg/mL
[6]
  MIC: > 64 µg/mL
[7]
  MIC: > 64 µg/mL
[8]
  MIC: > 64 µg/mL
[9]
  MIC E. coli WT-III [marRΔ74bp]: >64 µg/mL

## COC(C(N)=O)C(NC(=O)c1ccc(NC(=O)c2ccc([N+](=O)[O-])cc2)cc1)C(=O)Nc1ccc(C(=O)Nc2ccc(C(=O)Nc3ccc(C(=O)O)c(O)c3OC(C)C)c(O)c2OC(C)C)cc1 (stereo not shown) [Cys 935-2]
[1]
  MIC: 0.5 µg/mL (≈ 0.534 µM)
[2]
  MIC: 0.25 µg/mL (≈ 0.267 µM)
[3]
  MIC: 0.5 µg/mL (≈ 0.534 µM)
[4]
  MIC: 2 µg/mL (≈ 2.14 µM)
[5]
  MIC: 2 µg/mL (≈ 2.14 µM)
[6]
  MIC: 8 µg/mL (≈ 8.55 µM)
[7]
  MIC: 1 µg/mL (≈ 1.07 µM)
[8]
  MIC: 1 µg/mL (≈ 1.07 µM)
[9]
  MIC E. coli WT-III [marRΔ74bp]: 2 µg/mL (≈ 2.14 µM)

## CC1(C)S[C@@H]2[C@H](NC(=O)[C@H](N)c3ccccc3)C(=O)N2[C@H]1C(=O)O [ampicillin]
[10]
  growth of strain MCy8071 in presence of antibiotic: resistant

## CC[C@H](C)[C@H](N)C1=N[C@H](C(=O)N[C@@H](CC(C)C)C(=O)N[C@H](CCC(=O)O)C(=O)N[C@H](C(=O)N[C@H]2CCCCNC(=O)[C@H](CC(N)=O)NC(=O)[C@@H](CC(=O)O)NC(=O)[C@H](Cc3cnc[nH]3)NC(=O)[C@@H](Cc3ccccc3)NC(=O)[C@H]([C@@H](C)CC)NC(=O)[C@@H](CCCN)NC2=O)[C@@H](C)CC)CS1 [bacitracin] ({Ileψ(thiazoline)Cys}-L[dE]IK[dOrn]I[dF]H[dD]N; lactam 4-C)
[10]
  growth of strain MCy8071 in presence of antibiotic: resistant

## CC(=O)O[C@H]1C[C@@]2(C)[C@@H](C[C@@H](O)[C@H]3[C@@]4(C)CC[C@@H](O)[C@@H](C)[C@@H]4CC[C@@]32C)/C1=C(\CCC=C(C)C)C(=O)O [fusidinic acid]
[10]
  growth of strain MCy8071 in presence of antibiotic: resistant

## C[C@H]1O[C@H](O[C@H]2[C@H](O)[C@@H](O)[C@@H](O)[C@H](O)[C@@H]2O)[C@@H](N)C[C@@H]1NC(=N)C(=O)O [kasugamycin]
[10]
  growth of strain MCy8071 in presence of antibiotic: Weak growth

## CN[C@@H]1[C@H](O)[C@H](NC)[C@H]2O[C@@]3(O)C(=O)C[C@@H](C)O[C@H]3O[C@@H]2[C@H]1O [spectinomycin]
[10]
  growth of strain MCy8071 in presence of antibiotic: resistant

## C=C(NC(=O)C(=C)NC(=O)c1csc(C2=N[C@@H]3c4csc(n4)[C@H]4NC(=O)c5csc(n5)[C@H]([C@](C)(O)[C@@H](C)O)NC(=O)[C@H]5CSC(=N5)/C(=C/C)NC(=O)[C@H]([C@@H](C)O)NC(=O)c5csc(n5)[C@]3(CC2)NC(=O)[C@H](C)NC(=O)C(=C)NC(=O)[C@H](C)NC(=O)[C@H]([C@@H](C)CC)N[C@@H]2C=Cc3c([C@H](C)O)cc(nc3[C@H]2O)C(=O)O[C@@H]4C)n1)C(N)=O [thiostrepton]
[10]
  growth of strain MCy8071 in presence of antibiotic: no growth

## COc1cc(Cc2cnc(N)nc2N)cc(OC)c1OC [trimethoprin]
[10]
  growth of strain MCy8071 in presence of antibiotic: no growth

## gentamycin
[10]
  growth of strain MCy8071 in presence of antibiotic: resistant

## neomycin
[10]
  growth of strain MCy8071 in presence of antibiotic: resistant

## polymycin
[10]
  growth of strain MCy8071 in presence of antibiotic: resistant
